{"source": "patent US20090099319A1", "about": "“METHOD FOR SOLUBILISING HYDROPHOBIC ACTIVE SUBSTANCES IN AN AQUEOUS MEDIUM” (BASF SE, priority 2006, published 2009)", "assay": "physchem", "settings": "water, thermodynamic from solid", "procedure": "The excess solid was separated off by subsequently centrifuging the solutions twice at 15 000 rpm (20 minutes in each case), producing in all instances a clear, saturated solution of active substance. Subsequently the amount of the guest molecules complexed was determined by means of UV-VIS spectra, the reference sample used in each case being the respective aqueous polymer solution with the same concentration and the same preparation (likewise centrifuged). […] For all of the solubilization experiments evaluated in this way, the measurement error was ±5%."}
{"molecule": "COCCOC(=O)C1=C(C)NC(C)=C(C(=O)OC(C)C)C1c1cccc([N+](=O)[O-])c1", "note": "(stereo not drawn) [nimodipine, 1,4-dihydro-2,6-dimethyl-4-(3′-nitrophenyl)pyridine 3-β-methoxyethyl ester 5-isopropyl ester]", "values": [{"measurement": "solubility at 18 h", "result": 1.1, "unit": "µg/mL"}]}
